According to the CheMixHub viscosity set:
Where “and” joins values, the source holds several entries; their conditions need not be identical. Equal entries are not always repeated.

Tests used:
[1] = xn = mol fraction of the nth substance listed; conditions: 101 kPa

CC(=O)O.CC(=O)[O-].CC[NH+](CC)CCO
101 kPa
Conditions | viscosity [mPa·s]
293.15 K | 110.4
298.15 K | 80.19
303.15 K | 59.63
308.15 K | 45.32
313.15 K | 35.12
318.15 K | 27.71
323.15 K | 22.22

CCCCOCCOCCO
viscosity
Conditions | 298.15 K | 303.15 K | 308.15 K | 318.15 K
100 kPa | 5.11 mPa·s | 4.345 mPa·s | 3.872 mPa·s | –
101 kPa | 4.877 mPa·s | – | 3.582 mPa·s | 2.943 mPa·s
101.33 kPa | 5.232 mPa·s and 5.232 mPa·s | – | – | –

Nc1ccccc1Cl
viscosity
Conditions | 298.15 K | 303.15 K | 308.15 K | 313.15 K | 318.15 K
100 kPa | 4.209 mPa·s | 3.825 mPa·s | 3.413 mPa·s | 3.06 mPa·s | 2.762 mPa·s
101 kPa | 2.973 mPa·s and 2.974 mPa·s | – | – | – | –

C1CC[NH2+]C1.CCCCCCCC(=O)[O-]
101 kPa
Conditions | viscosity [mPa·s]
293.15 K | 72.2
298.15 K | 62.71
303.15 K | 50.21
308.15 K | 42.89
313.15 K | 35.27

O=S(=O)(Cl)Cl
Conditions | viscosity [mPa·s]
298.15 K, 101 kPa | 0.685

CC(O)CC(C)(C)O (stereo unspecified) + O=[N+]([O-])c1ccccc1
viscosity [mPa·s], [1]
Conditions | x1 = 0.0918 | x1 = 0.1905 | x1 = 0.2926 | x1 = 0.3853 | x1 = 0.4886 | x1 = 0.5862 | x1 = 0.6895 | x1 = 0.7727 | x1 = 0.8991
308.15 K | 1.724 | 1.903 | 2.194 | 2.574 | 3.288 | 4.074 | 5.512 | 7.423 | 12.38
318.15 K | 1.332 | 1.478 | 1.703 | 2.012 | 2.606 | 3.222 | 4.571 | 6.127 | 10.82

O=S1(=O)CCCC1 + Nc1ccccc1
viscosity [mPa·s], [1]
Conditions | x2 = 0.1 | x2 = 0.1955 | x2 = 0.3007 | x2 = 0.3902 | x2 = 0.4997 | x2 = 0.6003 | x2 = 0.7027 | x2 = 0.7982 | x2 = 0.8995
303.15 K | 9.14 | 8.22 | 7.31 | 6.62 | 5.86 | 5.24 | 4.66 | 4.17 | 3.69
308.15 K | 8.01 | 7.2 | 6.39 | 5.78 | 5.1 | 4.55 | 4.03 | 3.59 | 3.17
313.15 K | 7.05 | 6.33 | 5.61 | 5.06 | 4.46 | 3.97 | 3.51 | 3.12 | 2.75
